Measured values as given in PubChem BioAssay (NCI).
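Values below derive from 48-hour exposures of cells grown in 96-well plates, with endpoints linearly interpolated between the two concentrations bracketing the appropriate inhibition level. TGI: concentration producing complete growth inhibition.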

Columns and labels:
Experiment in all cases: NCI tumour cell line growth inhibition, 48 h
SNB-78 CNS = test system: SNB-78 CNS
DLD-1 colon = test system: DLD-1 colon
DMS 114 small cell lung = test system: DMS 114 small cell lung
DMS 273 small cell lung = test system: DMS 273 small cell lung
HOP-18 NSCLC = test system: HOP-18 NSCLC
XF 498 CNS = test system: XF 498 CNS
MDA-N = test system: MDA-N
BT-549 breast = test system: BT-549 breast
RXF-631 renal = test system: RXF-631 renal

SMILES	TGI (SNB-78 CNS) [µM]	TGI (DLD-1 colon) [µM]	TGI (DMS 114 small cell lung) [µM]	TGI (DMS 273 small cell lung) [µM]	TGI (HOP-18 NSCLC) [µM]	TGI (XF 498 CNS) [µM]	TGI (MDA-N) [µM]	TGI (BT-549 breast) [µM]	TGI (RXF-631 renal) [µM]
COc1ccc(C(=O)O)c(Cc2ccc3ccccc3c2)c1	> 100	> 100	> 100	> 100	> 100	> 100			
Cc1cc2c(c(N)c1C)C(=O)c1ccccc1C2=O	> 100	> 100	> 100	> 100	56				
O=C(O)/C=C\C(=O)Nc1ccc2c(c1)C(=O)c1cc(F)ccc1-2							> 100	> 100	
CC1CCC23COC(=O)C2C(O)CCC3C1(C)CC(O)c1ccoc1 (stereo not given)	> 100	> 100	> 100		> 100	> 100			
COC(=O)NN1C(C)=C(C(=O)OC)C2(CCOC2=O)C1(C)O (stereo not given)	> 100	> 100	> 100	> 100	> 100	> 100			> 100
CCN(CC)CC(O)C1CCC(c2ccccc2)CC1 (stereo not given)							41.8		
O=[N+]([O-])c1ccc(-c2cn(-c3ccc(Cl)cc3)cn2)cc1							> 100	> 100	
CCN(CC)CCOc1ccc(C(=C2CCCCC2)c2ccc(OCCN(CC)CC)cc2)cc1		4.52		2.93	8.01	2.29			2.82
BrC12c3ccccc3Sc3ccccc3C1(Br)c1ccccc12 (stereo not given)		> 100	64.8	87.2	> 100				98.8
N#CC1=C(c2ccccc2)C(O)(c2ccccc2)NC1=O (stereo not given)		> 100	> 100	> 100	> 100	> 100			> 100
CCOC(=O)/C=C/c1ccccn1	> 100	> 100	> 100		> 100	> 100			> 100
